Source: patent publication US7939546B2, “Quinoline derivatives for modulating DNA methylation” (SuperGen, Inc., priority 2007, dated 2011)
Structures can show the parent of a compound that is named as a salt.

Assays:
DNMT1 = DNMT1 (Homo sapiens, UniProt P26358); assay: Selective depletion of DNMT1 by Western blot in treated HCT116 cells; format: cell-based; parameters: Protein extracts (equivalent to 100 μg) were isolated from HCT116 cells; endogenous in cells; host or cells: HCT116; conditions: for % DNMT1 protein level remaining at 5 µM: HCT-116, 5 μM; for % DNMT1 protein level remaining at 10 µM: HCT-116, 10 μM
Excerpt: Biol. 2005, 11, 4727-41.]. For DNMT1, commercially available antibodies from Santa Cruz or New England Biolabs were used.

Chain of DNMT1 (P26358 whole entry): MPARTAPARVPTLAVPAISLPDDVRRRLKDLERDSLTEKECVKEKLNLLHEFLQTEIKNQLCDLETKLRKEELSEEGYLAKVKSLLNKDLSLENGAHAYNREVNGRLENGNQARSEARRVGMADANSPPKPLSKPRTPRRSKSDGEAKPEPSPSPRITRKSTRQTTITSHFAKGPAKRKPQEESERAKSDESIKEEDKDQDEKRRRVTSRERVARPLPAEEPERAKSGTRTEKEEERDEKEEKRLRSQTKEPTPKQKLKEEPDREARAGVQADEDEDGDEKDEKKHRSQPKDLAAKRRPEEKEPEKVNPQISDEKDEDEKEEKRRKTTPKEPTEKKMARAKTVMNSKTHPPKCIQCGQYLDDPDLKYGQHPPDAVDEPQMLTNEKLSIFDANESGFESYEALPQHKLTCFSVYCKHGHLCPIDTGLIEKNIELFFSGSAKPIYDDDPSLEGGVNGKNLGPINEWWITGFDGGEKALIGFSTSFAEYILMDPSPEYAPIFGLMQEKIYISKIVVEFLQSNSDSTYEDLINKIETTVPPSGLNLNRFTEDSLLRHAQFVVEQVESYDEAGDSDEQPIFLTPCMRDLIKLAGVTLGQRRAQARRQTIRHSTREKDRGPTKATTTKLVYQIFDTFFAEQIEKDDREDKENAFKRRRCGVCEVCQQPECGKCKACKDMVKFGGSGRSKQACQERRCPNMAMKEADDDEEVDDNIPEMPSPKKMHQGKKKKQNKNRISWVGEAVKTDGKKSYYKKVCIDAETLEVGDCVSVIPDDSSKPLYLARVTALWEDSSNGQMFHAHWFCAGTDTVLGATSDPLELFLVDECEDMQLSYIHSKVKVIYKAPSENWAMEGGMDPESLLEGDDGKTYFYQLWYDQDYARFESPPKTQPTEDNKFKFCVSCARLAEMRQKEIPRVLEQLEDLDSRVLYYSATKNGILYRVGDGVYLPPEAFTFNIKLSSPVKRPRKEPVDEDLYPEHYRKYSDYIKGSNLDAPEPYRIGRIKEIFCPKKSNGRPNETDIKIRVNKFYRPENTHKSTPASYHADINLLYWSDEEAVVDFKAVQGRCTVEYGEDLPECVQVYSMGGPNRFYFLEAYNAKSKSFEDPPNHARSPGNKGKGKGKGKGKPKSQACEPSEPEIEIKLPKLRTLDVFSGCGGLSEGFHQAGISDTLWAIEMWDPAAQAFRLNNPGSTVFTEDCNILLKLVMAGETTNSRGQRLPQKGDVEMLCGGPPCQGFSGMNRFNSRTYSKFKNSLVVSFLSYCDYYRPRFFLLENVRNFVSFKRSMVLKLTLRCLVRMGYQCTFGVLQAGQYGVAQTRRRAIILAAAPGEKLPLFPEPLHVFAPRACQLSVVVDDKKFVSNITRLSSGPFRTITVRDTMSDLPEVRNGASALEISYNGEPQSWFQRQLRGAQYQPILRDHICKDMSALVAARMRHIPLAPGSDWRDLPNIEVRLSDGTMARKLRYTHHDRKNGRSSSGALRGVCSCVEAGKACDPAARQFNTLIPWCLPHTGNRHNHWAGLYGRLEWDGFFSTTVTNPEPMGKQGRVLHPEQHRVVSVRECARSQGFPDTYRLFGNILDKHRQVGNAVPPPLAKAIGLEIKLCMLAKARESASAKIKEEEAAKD

| SMILES | % DNMT1 protein level remaining at 5 µM (DNMT1) [%] | % DNMT1 protein level remaining at 10 µM (DNMT1) [%] | melting point | further results |
| --- | --- | --- | --- | --- |
| C[n+]1ccc(Nc2cccc(NC(=O)c3ccc(Nc4ccnc5ccccc45)cc3)c2)cc1 (as salt: chloride) [Cpd. A, 1-methyl-4-(3-{[4-(4-quinolinylamino)benzoyl]amino}anilino)pyridinium chloride] | – | – | 253 to 257 °C | – |
| Cc1cc(Nc2cccc(C(=O)Nc3ccc(Nc4ccnc5ccc(N(C)C)cc45)cc3)c2)nc(N)n1 (as salt: chloride) [Cpd. EE, 4-[4-({3-[(2-amino-6-methyl-4-pyrimidinyl)amino]benzoyl}amino)anilino]-6-(dimethylamino)quinolinium chloride] | – | – | > 300 °C | – |
| C[n+]1ccc(Nc2cccc(NC(=O)c3ccc(Nc4ccnc5ccc([N+](=O)[O-])cc45)cc3)c2)cc1 (as salt: chloride) [Cpd. F, 1-methyl-4-(3-{[4-(6-nitro-4-quinolinylamino)benzoyl]amino}anilino)pyridinium chloride] | – | – | 273 to 277 °C | – |
| C[n+]1ccc(Nc2ccc(C(=O)Nc3ccc(Nc4ccnc5ccc(N)cc45)cc3)cc2)cc1 (as salt: chloride) [Cpd. N, 4-[4-({4-[(6-amino-4-quinolinyl)amino]anilino}carbonyl)anilino]-1-methylpyridinium chloride] | – | – | > 300 °C | – |
| C/C(=N\N=C(N)N)c1cccc(C(=O)Nc2ccc(Nc3ccnc4ccc(N(C)C)cc34)cc2)c1 (as salt: chloride) [Cpd. QQ, 4-[4-({3-[(1E)-N-(diaminomethylene)ethanehydrazonoyl]-benzoyl}amino)anilino]-6-(dimethylamino)quinolinium chloride] | – | – | > 280 °C | – |
| C[n+]1ccc(Nc2cccc(NC(=O)c3ccc(Nc4ccnc5cc([N+](=O)[O-])ccc45)cc3)c2)cc1 (as salt: chloride) [Cpd. R, 1-methyl-4-[3-({4-[(7-nitro-4-quinolinyl)amino]benzoyl}amino)anilino]pyridinium chloride] | – | – | 303 °C (dec.) | – |
| C[n+]1ccc(Nc2ccc(NC(=O)c3ccc(Nc4ccnc5ccccc45)cc3)cc2)cc1 (as salt: hydrochloride) [Cpd. B, 1-methyl-4-(4-(4-(quinolin-4-ylamino)benzamido)phenylamino)pyridinium chloride hydrochloride] | – | – | > 300 °C | – |
| Cc1cc(Nc2ccc(NC(=O)c3ccc(Nc4ccnc5cc(N(C)C)ccc45)cc3)cc2)nc(N)n1 (as salt: hydrochloride) [Cpd. BB, N-[4-(2-amino-6-methylpyrimidin-4-ylamino)phenyl]-4-(7-(dimethylamino)quinolin-4-ylamino)benzamide hydrochloride] | – | – | 272 to 275 °C | – |
| Cc1cc(Nc2cccc(C(=O)Nc3ccc(Nc4ccnc5ccccc45)cc3)c2)nc(N)n1 (as salt: hydrochloride) [Cpd. FF1, 3-[(2-amino-6-methyl-4-pyrimidinyl)amino]-N-[4-(4-quinolinylamino)phenyl]benzamide dihydrochloride] | – | – | > 300 °C | – |
| Cl.Cl.O=C(Nc1ccc(Nc2ccncc2)cc1)c1ccc(Nc2ccnc3ccccc23)cc1 [Cpd. EEE2, n-[4-(pyridin-4-ylamino)phenyl]-4-(quinolin-4-ylamino)benzamide dihydrochloride] | – | – | – | % DNMT1 Level (DNMT1; 5 μM): 3%; % DNMT1 Level (DNMT1; 10 μM): 0% |
| Cc1cc(Nc2cccc(C(=O)Nc3ccc(Nc4ccnc5ccccc45)cc3)c2)nc(N)n1 [Cpd. FF1, 3-[(2-amino-6-methyl-4-pyrimidinyl)amino]-N-[4-(4-quinolinylamino)phenyl]benzamide dihydrochloride] | 15 | 5 | – | – |
| Nc1cc(Nc2cccc(C(=O)Nc3ccc(Nc4ccnc5ccccc45)cc3)c2)nc(N)n1 [Cpd. FF2, 3-[(2,6-Diamino-4-pyrimidinyl)amino]-N-[4-(4-quinolinylamino)-phenyl]benzamide dihydrochloride] | 85 | 83 | – | – |
| C[n+]1ccc(Nc2ccc(NC(=O)c3ccc(Nc4ccnc5ccc([N+](=O)[O-])cc45)cc3)cc2)cc1 [Cpd. G, 1-methyl-4-(4-(4-(6-nitroquinolin-4-ylamino)benzamido)phenylamino)pyridinium chloride hydrochloride] | 95 | 95 | – | % DNMT1 protein level remaining at 100 µM (DNMT1; HCT-116, 100 μM): 100% |
| Cc1cc(Nc2ccc(C(=O)Nc3ccc(Nc4ccnc5ccccc45)cc3)cc2)nc(N)n1 [Cpd. GG1, 4-[(2-amino-6-methyl-4-pyrimidinyl)amino]-N-[4-(4-quinolinylamino)phenyl]benzamide dihydrochloride] | 25 | 20 | – | – |
| Cc1cc(Nc2ccc(C(=O)Nc3ccc(Nc4ccnc5cc(N)ccc45)cc3)cc2)nc(N)n1 [Cpd. GG2, 4-[(2-Amino-6-methyl-4-pyrimidinyl)amino]-N-{4-[(7-amino-4-quinolinyl)amino]phenyl}benzamide dihydrochloride] | 85 | 52 | – | – |
| Cc1cc(Nc2ccc(C(=O)Nc3ccc(Nc4ccnc5ccc([N+](=O)[O-])cc45)cc3)cc2)nc(N)n1 [Cpd. GG4, 4-[(2-Amino-6-methyl-4-pyrimidinyl)amino]-N-{4-[(6-nitro-4-quinolinyl)amino]phenyl}benzamide dihydrochloride] | – | 90 | – | – |
| Cc1cc(Nc2ccc(C(=O)Nc3ccc(Nc4ccnc5cc([N+](=O)[O-])ccc45)cc3)cc2)nc(N)n1 [Cpd. GG5, 4-[(2-Amino-6-methyl-4-pyrimidinyl)amino]-N-{4-[(7-nitro-4-quinolinyl)amino]phenyl}benzamide dihydrochloride] | – | 90 | – | – |
| Cc1cc(Nc2ccc(NC(=O)c3ccc(Nc4ccnc5c(F)c(F)c(F)cc45)cc3)cc2)nc(N)n1 [Cpd. KK, n-[4-(2-amino-6-methylpyrimidin-4-ylamino)phenyl]-4-(6,7,8-trifluoroquinolin-4-ylamino)benzamide dihydrochloride] | 82 | 20 | – | – |
| Nc1cc(Nc2cccc(C(=O)Nc3ccc(Nc4ccnc5ccc([N+](=O)[O-])cc45)cc3)c2)nc(N)n1 [Cpd. RR1, 3-[(2,6-diamino-4-pyrimidinyl)amino]-N-{4-[(6-nitro-4-quinolinyl)amino]phenyl}benzamide dihydrochloride] | – | 100 | – | – |
| Cc1cc(Nc2cccc(C(=O)Nc3ccc(Nc4ccnc5ccc([N+](=O)[O-])cc45)cc3)c2)nc(N)n1 [RR2, 3-[(2-amino-6-methyl-4-pyrimidinyl)amino]-N-{4-[(6-nitro-4-quinolinyl)amino]phenyl}benzamide dihydrochloride] | – | 100 | – | – |
| Cc1cc(Nc2cccc(C(=O)Nc3ccc(Nc4ccnc5ccc(N)cc45)cc3)c2)nc(N)n1 [RR3, 3-[(2-Amino-6-methyl-4-pyrimidinyl)amino]-N-{4-[(6-amino-4-quinolinyl)amino]phenyl}benzamide dihydrochloride] | – | 100 | – | – |

Continued, in another order:

| % DNMT1 protein level remaining at 5 µM (DNMT1) [%] | % DNMT1 protein level remaining at 10 µM (DNMT1) [%] | SMILES | melting point | further results |
| --- | --- | --- | --- | --- |
| 30 | 10 | Cc1cc(Nc2cccc(C(=O)Nc3ccc(Nc4ccnc5ccc(N(C)C)cc45)cc3)c2)nc(N)n1 [Cpd. EE, 4-[4-({3-[(2-amino-6-methyl-4-pyrimidinyl)amino]benzoyl}amino)anilino]-6-(dimethylamino)quinolinium chloride] | – | – |
| 110 | 10 | Cc1cc(Nc2ccc(C(=O)Nc3ccc(Nc4ccnc5ccc(N)cc45)cc3)cc2)nc(N)n1 [Cpd. GG3, 4-[(2-amino-6-methyl-4-pyrimidinyl)amino]-N-{4-[(6-amino-4-quinolinyl)amino]phenyl}benzamide dihydrochloride] | – | – |
| – | 90 | Cc1cc(Nc2ccc(C(=O)Nc3ccc(Nc4ccnc5ccc(N(C)C)cc45)cc3)cc2)nc(N)n1 [Cpd. HH, 4-[(2-amino-6-methyl-4-pyrimidinyl)amino]-N-(4-{[6-(dimethylamino)-4-quinolinyl]amino}phenyl)benzamide dihydrochloride] | – | – |
| 75 | 70 | C/C(=N\N=C(N)N)c1cccc(NC(=O)c2ccc(Nc3ccnc4ccc(N(C)C)cc34)cc2)c1 [Cpd. JJ1, (E)-N-[3-(1-{(diaminomethylene)hydrazono}ethyl)phenyl]-4-[6-(dimethylamino)quinolin-4-ylamino]benzamide dihydrochloride] | – | – |
| 147 | 130 | C/C(=N\N=C(N)N)c1cccc(NC(=O)c2ccc(Nc3ccnc4ccccc34)cc2)c1 [Cpd. JJ2, (E)-N-[3-(1-{(Diaminomethylene)hydrazono}ethyl)phenyl]-4-(quinolin-4-ylamino)benzamide dihydrochloride] | – | – |
| 70 | 70 | C/C(=N\N=C(N)N)c1ccc(NC(=O)c2ccc(Nc3ccnc4ccc(N(C)C)cc34)cc2)cc1 [Cpd. NN, (E)-N-(4-(1-((Diaminomethylene)hydrazono)ethyl)phenyl)-4-(6-(dimethylamino)quinolin-4-ylamino)benzamide Dihydrochloride] | – | – |
| 60 | 70 | C/C(=N\N=C(N)N)c1ccc(C(=O)Nc2ccc(Nc3ccnc4ccc(N(C)C)cc34)cc2)cc1 [Cpd. PP, 4-[(1E)-N-(diaminomethylene)ethanehydrazonoyl]-N-(4-{[6-(dimethylamino)-4-quinolinyl]amino}phenyl)benzamide dihydrochloride] | – | – |
| 60 | 50 | C/C(=N\N=C(N)N)c1cccc(C(=O)Nc2ccc(Nc3ccnc4ccc(N(C)C)cc34)cc2)c1 [Cpd. QQ, 4-[4-({3-[(1E)-N-(diaminomethylene)ethanehydrazonoyl]-benzoyl}amino)anilino]-6-(dimethylamino)quinolinium chloride] | – | – |
